# Legend:
# [1] = system: obesity-induced aged C57BL6J mice; experiment: p16, MMP3, IL6 mRNA in groin fat of obese aged mice given senescent cells killed by test compound, Example 16; format: in vivo, mouse; details: no administration = 100%
# Excerpt: To obtain preadipocytes, groin fat tissue was collected from an 8-week-old female C57BL6J mouse (KRIBB Laboratory Animal Resource Center). The fat tissue was cut into small pieces and treated with collagenase to decompose the fat tissue, then centrifuged to collect the stromal vascular fraction (SVF) containing preadipocytes. It was washed with a washing medium (HBSS, GenDEPOT; 3.5% Albumin Fraction V, GenDEPOT; 100 U/ml Penicillin & Streptomycin, Invitrogen), mixed again, and extracted by filtering through a 100 μm nylon mesh. The isolated preadipocytes were cultured in the designated medium (DMEM, GenDEPOT; 20% FBS, GenDEPOT; 100 U/ml Penicillin & Streptomycin, Invitrogen). In the same manner as Example 1 of WO2023-085787 A1, cells were treated with doxorubicin at a concentration of 250 nM for 24 hours and cultured for an additional 21 days to induce cell senescence. […] By treating the test compound in the same manner as in Example 13, it was confirmed using an optical microscope that the death of most senescent cells was induced. […] Afterwards, the mouse was sacrificed in the same manner as in Example 7-2 of WO2023-085787 A1, total RNA was extracted from the groin fat tissue, and qRT-PCR was performed and analyzed using the synthesized cDNA. […] The mRNA amount of p16, MMP3, and IL6 without administration of senescent cells whose death was induced by the test compound were calculated as 100%, and the amount of p16, MMP3, and IL6 after administration of the senescent cells whose death was induced by the test compound were compared with them. […] The amount of activity evaluation without administration of senescent cells whose death was induced by the test compound was calculated as 100% and compared it with the amount of activity evaluation after administration of senescent cells whose death was induced by the test compound. […]
# [2] = system: obesity-induced aged C57BL6J mice; experiment: p16 and p21 mRNA in obesity-aged mice, Example 23-2, Table 42; format: in vivo, mouse; details: 360 mg/kg oral daily for 21 days, untreated 100%
# Description: 15-week-old male C57BL6J mice (The Jackson Laboratory) were induced to obesity by a high-fat diet using the same method as in Example 9-1 WO2023-085787 A1. After acclimation to the experimental environment for one week, the mice were randomly assigned to experimental and control groups. […] LX-3002 was mixed in distilled water with 4% DMSO, 30% PEG300, and 5% Tween80 and administered orally at a concentration of 10 mg/kg daily for 21 days. LX-5701 was mixed in PBS and administered orally at a concentration of 360 mg/kg daily for 21 days. LX-6807 was mixed in saline and administered intraperitoneally at a concentration of 1 mg/kg daily for 21 days. The control group received only the solution in the same volume. After the end of drug administration, the methods described in each example below were performed.
# Mice were sacrificed using the same method as in Example 7-2 of WO2023-085787 A1. RNA was extracted from organ tissues from each site, and the synthesized cDNA was used for qRT-PCR (quantitative real-time PCR) analysis. […] The mRNA levels of p16 and p21 after obesity induction were calculated as 100% and compared with the mRNA levels of p16 and p21 after LX-5701 treatment.
# [3] = senescent preadipocytes killed by test compound sc
smiles,measurement,setting,value
S=C(N/N=C1\CCCc2cccnc21)N1CCN(c2ccccn2)CC1 [LX-801],IL6 mRNA,[1]; [3],79.4 (±4.6) %
same,MMP3 mRNA,[1]; [3],81.7 (±2.9) %
same,p16 mRNA,"[1]; senescent preadipocytes killed by test compound, 5×10^5 cells sc",79.8 (±3.4) %
O=C1C2CCN(CC2)C1CNC(=O)C(F)(F)F (centres unmarked) [LX-5701],"p16 mRNA, Eye",[2]; Eye,71%
same,"p21 mRNA, Eye",[2]; Eye,70%
same,"p16 mRNA, Heart",[2]; Heart,80%
same,"p21 mRNA, Heart",[2]; Heart,81%
same,"p16 mRNA, Liver",[2]; Liver,63%
same,"p21 mRNA, Liver",[2]; Liver,61%
same,"p16 mRNA, Lung",[2]; Lung,74%
same,"p21 mRNA, Lung",[2]; Lung,77%
same,"p16 mRNA, Muscle",[2]; Muscle,75%
same,"p21 mRNA, Muscle",[2]; Muscle,64%
same,"p16 mRNA, Skin",[2]; Skin,77%
same,"p21 mRNA, Skin",[2]; Skin,68%
same,"p16 mRNA, asWAT",[2]; asWAT,67%
same,"p21 mRNA, asWAT",[2]; asWAT,79%
same,"p16 mRNA, eWAT",[2]; eWAT,65%
same,"p21 mRNA, eWAT",[2]; eWAT,55%
same,"p16 mRNA, iBAT",[2]; iBAT,72%
same,"p21 mRNA, iBAT",[2]; iBAT,80%
same,"p16 mRNA, iWAT",[2]; iWAT,61%
same,"p21 mRNA, iWAT",[2]; iWAT,51%

# Source: patent US20260306460A1, “COMPOSITION FOR REMOVING AND INHIBITING SENESCENT CELLS, AND USES THEREOF” (LIFECEUTIX CO., LTD., priority 2023, published 2026)
